Data on five molecules can be found in paper PMC6984732, “Thymidine phosphorylase and prostrate cancer cell proliferation inhibitory activities of synthetic 4-hydroxybenzohydrazides: In vitro, kinetic, and in silico studies” (PLoS ONE, 2020).

The target in experiment [1] is T1, thymidine phosphorylase (TP) (Escherichia coli, UniProt P07650).
T1 construct: purchased Sigma Aldrich, USA; host or cells: E. coli
Description: Thymidine phosphorylase inhibition assay (spectrophotometric, 290 nm). The class given is biochemical, E. coli. To be noted: for inhibition: read-out: Percent Inhibition of thymidine phosphorylase, 10 μL of test compound (0.5 mM in dimethylsulfoxide) per well, <50% regarded inactive; for IC50: recombinant TP expressed in E. coli, substrate thymidine, pH 7.0, 30°C, N.A. = not active, read-out: IC50 (μM ± SEM), thymidine phosphorylase inhibition. As for the experimental part:
Since human TP is not commercially available, we used commercially available recombinant TP (expressed in E. coli) enzyme. Primary sequence of TP is mostly conserved throughout the evolution and mammalian TP share 39% sequence similarity with TP of E. coli. The mammalian enzyme also shares 65–70% similarity with the active site residues of E. coli TP enzyme.
Assay for TP inhibition was performed spectrophotometrically, following the method of Bera et al. with some modifications. Enzyme TP catalyzed the reversible phosphorolysis of thymidine to thymine and 2-deoxyribose-1-phosphate. Reaction mixture contained 150 μL of potassium phosphate buffer (pH 7.0, 50 mM), 20 μL of enzyme (0.058 U/well), and 10 μL of test compound (0.5 mM in dimethylsulfoxide). The reaction mixture was incubated for 10 min at 30°C. 20 μL of substrate (1.5 mM) was then added and change in absorbance was recorded after every minute for a total time period of 10 minutes at 290 nm in ELISA plate reader (Spectra Max-340, Molecular Devices, CA, USA).
We have used the 96-well UV-plates, purchased from Corning (Catalogue No. COSTAR 3635, Lot No. 00912050). […] We then added the substrate (thymidine), and recorded the final readings.

For experiment [2], the target named is T1, thymidine phosphorylase (TP). The experiment in a line: Kinetic studies on thymidine phosphorylase (Lineweaver-Burk, secondary re-plot, Dixon plot). Format: biochemical, E. coli. To be noted: thymidine as variable substrate; for Inhibition Type: from Lineweaver-Burk plot. As for the experimental part: Kinetic studies were carried out to identify the mechanism of inhibition by these compounds. Inhibitor could bind with the enzyme in multiple ways, such as in competitive, non-competitive, mixed or uncompetitive way. In kinetic assay, the enzyme (0.058 U/200 μL) was incubated with different concentrations of inhibitor for 10 min at 30°C. The reaction was then initiated by adding different concentrations (0.1875–1.5 mM) of substrate (thymidine), and the resulting degradation of thymidine was measured continuously at 290 nm for 10 min on ELISA plate reader. Every experiment was run in triplicate.
Lineweaver-Burk plot was plotted to determine the type of inhibition. This was accomplished by plotting the reciprocal of the rate of reaction against the reciprocal of the substrate concentration. Ki values were determined by secondary re-plot of Lineweaver-Burk plot, and reconfirmed by Dixon plot.

In experiment [3] the test system is mouse fibroblast (3T3) cells. Description: MTT anti-proliferative (cytotoxicity) assay, 3T3 cells. The class given is cell-based. Particulars: NIH3T3, 48 h incubation, mouse fibroblast normal cell line, read-out: IC50 ± Standard Deviation, 3T3 Cell Line. As for the experimental part: (§1) Anti-proliferative activity of active compounds was evaluated by using the standard MTT (3-[4,5-dimethylthiazole-2-yl]-2,5-diphenyl-tetrazolium bromide) colorimetric assay in 96-well plate.
(§2) It is a colorimetric assay that measures the reduction of MTT by mitochondrial enzyme i.e. succinate dehydrogenase. The MTT enters into the mitochondria of cell, where it is reduced to an insoluble formazan salt. As reduction of MTT can only occur in metabolically active cells, the level of activity is actually a measure of the viability of the cells.
(§3) Mouse fibroblast normal cell line 3T3, and prostate cancer line (PC3) were cultured separately in DMEM, supplemented with 5% of FBS, 100 IU/mL of penicillin and 100 μg/mL of streptomycin, and kept at 37°C in 5% CO2 incubator. For the preparation of cell culture, 100 μL/well of cell solution (5 x 10^4 cells/mL) was added into 96-well plate. The plate was incubated for overnight, and fresh medium was added after the removal of old medium. The test compounds were also added in different concentrations into the plate, and again incubated for 48 h. After the completion of this incubation period, 200 μL MTT (0.5 mg/mL) was added, and plate was again incubated for 4 h, after this final incubation, 100 μL of DMSO was added to each well. The level of MTT reduction to formazan was evaluated by change in absorbance at 540 nm for 3T3, and 570 nm for PC3 using a micro-plate reader (Spectra Max plus, Molecular Devices, CA, USA).

Experiment [4] concerns prostate cancer (PC3) cells. Description: MTT anti-proliferative assay, PC3 cells. Format: cell-based. Particulars: Homo sapiens, PC-3, 48 h incubation, prostate cancer cell line, read-out: IC50 ± Standard Deviation, PC3 Cell Line. As for the experimental part: as §1, §2, §3

A value given as a limit tells only on which side of the number the result lay.

T1 sequence (P07650 whole entry): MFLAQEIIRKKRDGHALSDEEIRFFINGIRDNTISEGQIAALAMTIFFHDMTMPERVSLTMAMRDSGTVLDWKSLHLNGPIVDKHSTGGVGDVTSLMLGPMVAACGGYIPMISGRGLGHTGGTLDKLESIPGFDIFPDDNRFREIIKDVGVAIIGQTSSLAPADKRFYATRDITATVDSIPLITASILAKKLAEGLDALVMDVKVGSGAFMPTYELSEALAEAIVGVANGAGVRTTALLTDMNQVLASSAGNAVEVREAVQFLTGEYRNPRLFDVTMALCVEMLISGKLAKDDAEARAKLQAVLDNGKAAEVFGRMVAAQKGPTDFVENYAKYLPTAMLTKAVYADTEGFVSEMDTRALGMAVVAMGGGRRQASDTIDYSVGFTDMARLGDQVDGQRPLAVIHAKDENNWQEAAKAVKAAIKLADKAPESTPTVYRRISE

Turning to `O=C(N/N=C/c1ccc(O)c(O)c1)c1ccc(O)cc1` [Compound 3, N'-[(E)-(3^′,4^′-Dihydroxylphenyl)methylidene]-4-hydroxylbenzohydrazide], the inhibition in experiment [1] came out at 99.3%. Moreover, the “Inhibition Type” value in experiment [2] is reported as “Uncompetitive”. Besides, the IC50 in experiment [3] was 23.5 ± 1.1 µM; in experiment [4], above 30 µM.
Take `O=C(NN=Cc1ccc(Cl)cc1)c1ccc(O)cc1` [Compound 9, N'-[(E)-(4^′-Chlorophenyl)methylidene]-4-hydroxylbenzohydrazide]: in experiment [1], the inhibition is 99%. In addition, the 50% inhibitory concentration (IC50) in experiment [1] is 159 ± 0.4 µM; in experiment [3] it was above 30 µM; in experiment [4] it was above 30 µM. In addition, the “Inhibition Type” value in experiment [2] is recorded as “Uncompetitive”. Further, in experiment [2] (secondary re-plot of Lineweaver-Burk plot, reconfirmed by Dixon plot, read-out: Ki (μM ± SEM)), the Ki turned out to be 138 ± 0.009 µM.
With `C/C(=N\NC(=O)c1ccc(O)cc1)c1c(O)cccc1O` [Compound 27, N'-[(E)-1-(2^′,6^′-Dihydroxylphenyl)ethylidene]-4-hydroxylbenzohydrazide], in experiment [1], the inhibition is 93%. For the same molecule, the “Inhibition Type” value in experiment [2] was “Uncompetitive”. Further, the IC50 in experiment [3] is 26.7 ± 1 µM; in experiment [4], above 30 µM.
Consider `CC/C(=N\NC(=O)c1ccc(O)cc1)c1cc(O)ccc1O` [Compound 29, N'-[(E)-1-(2^′,5^′-Dihydroxylphenyl)propylidene]-4-hydroxylbenzohydrazide], for which the inhibition in experiment [1] turned out to be 99%. Further, the IC50 in experiment [1] is 173 ± 1.4 µM; in experiment [3] it was 19.5 ± 0.9 µM; in experiment [4], above 30 µM. Further, the “Inhibition Type” value in experiment [2] is listed as “Uncompetitive”.
As for `O=C(N/N=C/c1ccc(Br)cc1)c1ccc(O)cc1` [Compound 14, N'-[(E)-(4^′-Bromophenyl)methylidene]-4-hydroxylbenzohydrazide], in experiment [1], the inhibition was found to be 96.6%. Besides, the “Inhibition Type” value in experiment [2] is given as “Uncompetitive”. In addition, the IC50 in experiment [3] and in experiment [4] was above 30 µM in each case.
